Results from patent US6083932A, “Pharmaceutical compositions derived from ginseng and methods of treatment using same” (CV Technologies Inc., priority 1998, dated 2000).

Columns and labels:
Assay type in all cases: biochemical
Details in all cases: 10^-5 M
noradrenaline uptake = noradrenaline uptake in hypothalamus slices
Text: (§1) We have also investigated the effects of HT1001 on noradrenaline, dopamine and 5-hydroxytryptamine reuptake and monamine oxidase A and B activity in vitro. When compared to amphetamine, HT1001 has little effect on noradrenaline or dopamine uptake. For example, at 10^-4 M (assuming a molecular weight of 900 for HT1001) HT1001 inhibits noradrenaline uptake in hypothalamus slices 3.0% whereas amphetamine at 10^-5 M inhibits uptake by 83%. […] None of these effects are dramatic.

dopamine uptake = dopamine uptake in striatal slices
Text: as §1

[1] = tested on: 5-hydroxytryptamine uptake; assay: 5-hydroxytryptamine uptake in striatal slices
Text: as §1

CC(N)Cc1ccccc1 (stereo not drawn) [amphetamine]
inhibition of noradrenaline uptake (noradrenaline uptake): 83%
inhibition of dopamine uptake (dopamine uptake): 92.4%
inhibition of 5-hydroxytryptamine uptake [1]: 94%
